Assay results published in patent US6737383B1, “Herbicidal oxadiazolidines” (priority 1999, dated 2004).

Key:
winter wheat [1] = test: Test E winter wheat; assay type: in vivo, Triticum aestivum; conditions: Preemergence
Italian ryegrass = test: Test E Italian ryegrass; assay type: in vivo, Lolium multiflorum; conditions: Preemergence
winter barley = test: Test E winter barley; assay type: in vivo, Hordeum vulgare; conditions: Preemergence
green foxtail [2] = test: Test E green foxtail; assay type: in vivo, Setaria viridis; conditions: Preemergence
common ragweed = test: Test D common ragweed; assay type: in vivo, Ambrosia elatior; conditions: Preemergence, 0 to 100 scale
Outline: (§1)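 Visual injury ratings, 0 = no injury to 100 = complete control, taken 14 to 21 days after treatment. Test chemicals were in a surfactant-containing non-phytotoxic solvent; preemergence treatments went onto the sandy loam surface of seeded greenhouse pots within one day of sowing.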

winter wheat [3] = test: Test E winter wheat; assay type: in vivo, Triticum aestivum; conditions: Postemergence
Outline: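 Visually scored herbicidal effect relative to untreated plants, taken ~21 to 28 days post-application; compound in solvent with surfactant; postemergence sprays at the 1- to 4-leaf stage.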

morningglory = test: Test B pre/postemergence morningglory; assay type: in vivo, Ipomoea hederacea
Outline: (§2)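 Response is a visual 0-to-10 score relative to untreated plants, where 0 means no effect and 10 means complete control, taken twelve to sixteen days after application. Treatments went onto soil at planting and onto foliage of 1- to 4-leaf plants, using a surfactant-containing non-phytotoxic solvent.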

blackgrass = test: Test E blackgrass; assay type: in vivo, Alopecurus myosuroides; conditions: Preemergence
itchgrass = test: Test D itchgrass; assay type: in vivo, Rottboellia exaltata; conditions: Preemergence, 0 to 100 scale
Outline: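 Scoring used a 0–100 visual injury scale, with 0 meaning no effect and 100 complete control, assessed 14–21 days after application alongside untreated pots. Preemergence treatments went onto sandy loam surfaces of separately potted seeds within a day of sowing.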

giant foxtail = test: Test B pre/postemergence giant foxtail; assay type: in vivo, Setaria faberii
Outline: as §2

Green foxtail [4] = test: Test D green foxtail; assay type: in vivo; conditions: Preemergence, 0 to 100 scale
Outline: as §1

wild oat = test: Test E wild oat; assay type: in vivo, Avena fatua; conditions: Preemergence
pigweed = test: Test B pre/postemergence pigweed; assay type: in vivo, Amaranthus retroflexus
Outline: as §2

Green foxtail [5] = test: Test D green foxtail; assay type: in vivo
Outline: as §1

[6] = Rate 31 g/ha, 0 to 100 scale, 0 no effect, 100 complete control
[7] = Rate 62 g/ha, 0 to 100 scale, 0 no effect, 100 complete control
[8] = Rate 125 g/ha, 0 to 100 scale (0 no effect, 100 complete control)
[9] = Rate 16 g/ha, 0 no injury, 100 complete control
[10] = Rate 32 g/ha, 0 no injury, 100 complete control
[11] = Rate 64 g/ha, 0 no injury, 100 complete control
[12] = Rate 125 g/ha, 0 no injury, 100 complete control
[13] = Postemergence, Rate 62 g/ha, scale 0 to 10, 0 is no effect, 10 is complete control
[14] = Postemergence, Rate 125 g/ha, scale of 0 to 10 where 0 is no effect and 10 is complete control
[15] = Postemergence, Rate 250 g/ha, scale 0 to 10, 0 no effect, 10 complete control
[16] = Preemergence, Rate 62 g/ha, scale 0 to 10 (0 no effect, 10 complete control)
[17] = Preemergence, Rate 125 g/ha, scale 0 to 10 (0 no effect, 10 complete control)
[18] = Preemergence, Rate 250 g/ha, scale of 0 to 10 where 0 is no effect and 10 is complete control
[19] = Preemergence, Rate 500 g/ha, scale 0 (no effect) to 10 (complete control)
[20] = Rate 500 g/ha, Postemergence, scale 0 to 10, 0 no effect, 10 complete control
[21] = Rate 64 g/ha, Preemergence; 0 to 100 scale, 0 no injury, 100 complete control
[22] = Rate 125 g/ha, Preemergence; 0 to 100 scale, 0 no injury, 100 complete control

C=CCn1c(=O)on(C(=O)N(c2ccccc2)C(C)C)c1=O [Compound 93]
Plant response rating, Wheat (winter) (winter wheat [1]; [6]): 20 | Plant response rating, Wheat (winter) (winter wheat [1]; [7]): 40 | Plant response rating, Wheat (winter) (winter wheat [1]; [8]): 40 | Plant response rating, Wheat (winter) (winter wheat [1]; Rate 250 g/ha, 0 to 100 scale): 100 | Plant response rating, I. Ryegrass (Italian ryegrass; [6]): 30 | Plant response rating, I. Ryegrass (Italian ryegrass; [7]): 50 | Plant response rating, I. Ryegrass (Italian ryegrass; [8]): 70 | Plant response rating, I. Ryegrass (Italian ryegrass; Rate 250 g/ha, 0 to 100 scale): 100 | Plant response rating, Barley (winter) (winter barley; [6]): 20 | Plant response rating, Barley (winter) (winter barley; [7]): 50 | Plant response rating, Barley (winter) (winter barley; [8]): 50 | Plant response rating, Barley (winter) (winter barley; Rate 250 g/ha, 0 to 100 scale): 50 | Plant response rating, Green foxtail (green foxtail [2]; [6]): 30 | Plant response rating, Green foxtail (green foxtail [2]; [7]): 70 | Plant response rating, Green foxtail (green foxtail [2]; [8]): 80 | Plant response rating, C. ragweed (common ragweed; [9]): 0 | Plant response rating, C. ragweed (common ragweed; [10]): 0 | Plant response rating, C. ragweed (common ragweed; [11]): 0 | Plant response rating, C. ragweed (common ragweed; [12]): 10 | Plant response rating, C. ragweed (common ragweed; Rate 250 g/ha): 0 | Plant response rating, C. ragweed (common ragweed; Rate 500 g/ha): 80 | Plant response rating, Wheat (winter) (winter wheat [3]; [6]): 0 | Plant response rating, Wheat (winter) (winter wheat [3]; Rate 62 g/ha, 0 to 100 scale): 20 | Plant response rating, Wheat (winter) (winter wheat [3]; Rate 125 g/ha, 0 to 100 scale): 65 | Plant response rating, Wheat (winter) (winter wheat [3]; Rate 250 g/ha, 0 to 100 scale (0 no effect, 100 complete control)): 0 | Morningglory plant response rating (morningglory; [13]): 6 | Morningglory plant response rating (morningglory; [14]): 10 | Morningglory plant response rating (morningglory; [15]): 10 | Morningglory plant response rating (morningglory; [16]): 0 | Plant response rating, Morningglory (morningglory; [17]): 0 | Plant response rating, Morningglory (morningglory; [18]): 3 | Morningglory plant response rating (morningglory; [19]): 6 | Morningglory plant response rating (morningglory; [20]): 10 | Plant response rating, Blackgrass (blackgrass; [6]): 0 | Plant response rating, Blackgrass (blackgrass; [7]): 50 | Plant response rating, Blackgrass (blackgrass; [8]): 70 | Plant response rating, Blackgrass (blackgrass; Rate 250 g/ha, 0 to 100 scale): 75 | Plant response rating, Itchgrass (itchgrass; [9]): 50 | Plant response rating, Itchgrass (itchgrass; [10]): 60 | Plant response rating, Itchgrass (itchgrass; [11]): 60 | Plant response rating, Itchgrass (itchgrass; [12]): 75 | Plant response rating, Itchgrass (itchgrass; Rate 250 g/ha): 90 | Plant response rating, Itchgrass (itchgrass; Rate 500 g/ha): 100 | Giant foxtail plant response rating (giant foxtail; [13]): 6 | Giant foxtail plant response rating (giant foxtail; [14]): 7 | Giant foxtail plant response rating (giant foxtail; [15]): 9 | Giant foxtail plant response rating (giant foxtail; [16]): 10 | Plant response rating, Giant foxtail (giant foxtail; [17]): 10 | Plant response rating, Giant foxtail (giant foxtail; [18]): 10 | Giant foxtail plant response rating (giant foxtail; [19]): 10 | Giant foxtail plant response rating (giant foxtail; [20]): 9 | Plant response rating, Green foxtail (Green foxtail [4]; Rate 250 g/ha): 100 | Plant response rating, Green foxtail (Green foxtail [4]; Rate 500 g/ha): 100 | Plant response rating, Wild oat (wild oat; [6]): 40 | Plant response rating, Wild oat (wild oat; [7]): 50 | Plant response rating, Wild oat (wild oat; [8]): 60 | Redroot pigweed plant response rating (pigweed; [13]): 2 | Redroot pigweed plant response rating (pigweed; [14]): 4 | Redroot pigweed plant response rating (pigweed; [16]): 9 | Plant response rating, Redroot pigweed (pigweed; [17]): 8 | Plant response rating, Redroot pigweed (pigweed; [18]): 10 | Redroot pigweed plant response rating (pigweed; [19]): 10 | Plant response rating, Redroot pigweed (pigweed; Rate 250 g/ha, Postemergence, scale 0 to 10, 0 is no effect, 10 is complete control): 7 | Redroot pigweed plant response rating (pigweed; [20]): 7 | Plant response rating, Green foxtail (Green foxtail [5]; Preemergence; Rate 16 g/ha; 0 to 100 scale, 0 no injury, 100 complete control): 65 | Plant response rating, Green foxtail (Green foxtail [5]; Preemergence; Rate 32 g/ha; 0 to 100 scale, 0 no injury, 100 complete control): 75 | Plant response rating, Green foxtail (Green foxtail [5]; Rate 16 g/ha; Preemergence; 0 to 100 scale, 0 no injury, 100 complete control): 65 | Plant response rating, Green foxtail (Green foxtail [5]; Rate 32 g/ha; Preemergence; 0 to 100 scale, 0 no injury, 100 complete control): 0 | Green foxtail plant response rating (Green foxtail [5]; [21]): 100 | Plant response rating, Green foxtail (Green foxtail [5]; [21]): 100 | Green foxtail plant response rating (Green foxtail [5]; [22]): 100 | Plant response rating, Green foxtail (Green foxtail [5]; [22]): 100 | Plant response rating, Green foxtail (Green foxtail [5]; Rate 250 g/ha; Preemergence; 0 to 100 scale): 100 | Plant response rating, Green foxtail (Green foxtail [5]; Rate 500 g/ha, Preemergence; 0 to 100 scale): 100
